The subject of data set [1] is Nrf2/ARE (ARE-bla HepG2 cells). Description: ARE β-lactamase reporter gene assay. Type of data set: cell-based, human. The settings on record: 16 h incubation, mean±SD of three experiments.
Another data set relates to rat primary hepatocytes. As to the kind of experiment: MMP assay in rat primary hepatocytes. The settings on record: for Rat hepatocytes (efficacy) (MMP): % of positive control, mean±SD of three experiments; for IC50: Rattus norvegicus, Hepatocyte.
The subject of data set [2] is Caenorhabditis elegans (Bristol N2). Description: C. elegans larval development and growth assay. The settings on record: for LEC (lowest effect concentration), larval growth assay: 48 h exposure.
Data set [3] concerns HepG2 cells. Description: ROS-Glo hydrogen peroxide (ROS) assay. Type of data set: cell-based, human. The settings on record: Homo sapiens, HepG2; 2 h treatment; mean±SD of three experiments; read-out: ROS (HepG2) EC50.
The subject of the next data set is hNSC. As to the kind of experiment: MMP assay in human neural stem cells (hNSC). The following applies: Homo sapiens, Neural stem cell; 1 h treatment; fresh re-sourced stocks; mean±SD of three experiments; read-out: hNSC IC50 (MMP). Type of data set: cell-based.
For data set [4], the system named is HepG2 cells. As to the kind of experiment: Intracellular ATP content (cell viability) assay. Type of data set: cell-based, human. The settings on record: 40 h treatment, mean±SD of three experiments; for IC50: Homo sapiens, HepG2.
In data set [5] the test system is HeLa cells expressing YFP-Parkin. As to the kind of experiment: Parkin translocation assay. In kind it is cell-based, human. The following applies: HeLa cells stably expressing YFP-Parkin; treated for 2 h.
Data set [6] relates to p53 (p53-bla HCT-116 cells). Description: p53 β-lactamase reporter gene assay. The settings on record: 16 h incubation; mean±SD of three experiments. In kind it is cell-based, human. For orientation: Reporter assays use an easily measured gene product as a stand-in for the process of interest.
Data set [7] concerns HepG2 cells. Description: cells. The settings on record: Homo sapiens.
For data set [8], the system named is isolated rat liver mitochondria. Description: Oxygen consumption, Clark-type oxygen electrode. Type of data set: biochemical.
For data set [9], the system named is Caenorhabditis elegans strain PE255. Description: In vivo C. elegans ATP status assay. The following applies: Caenorhabditis elegans, read-out: LEC LUM: lowest effect concentration for luminescence, a measure of nematode ATP content.
Data set [10] relates to HepG2 cells. The settings on record: cited from earlier work.
[11] abbreviates: 1 h, read-out: Rat hepatocytes IC50 (MMP).
Setting [12] is: HepG2, 1 h, read-out: HepG2 IC50 Galactose (MMP).
Setting [13] is: HepG2, 1 h, read-out: HepG2 IC50 Glucose (MMP).

Like-named read-outs stand apart in the source and are kept apart here.

As usually defined, the IC50 is the concentration that gives 50% inhibition. Usually EC50 stands for the concentration giving half of the maximal effect. Regarding `Cc1cc(Cc2cc(C)cc(C(C)(C)C)c2O)c(O)c(C(C)(C)C)c1` [2,2′-Methylenebis(4-methyl-6-tert-butylphenol)], in data set [1], the “ARE (HepG2) EC50” value is on record as “Inactive”. Besides, the “Rat hepatocytes (efficacy) (MMP)” value with rat primary hepatocytes is −121±16.7%. For the same compound, the IC50 with rat primary hepatocytes (setting [11]) was determined as 6.89 ± 1.44 µM; in the data set on hNSC, 0.88 ± 0.25 µM; in the data set with HepG2 cells [4] (5 mM glucose, read-out: ATP (HepG2, glucose) IC50) it was 34.1 ± 3.93 µM; in the data set on HepG2 cells [4] (10 mM galactose, read-out: ATP (HepG2, galactose) IC50), 34 µM; in the data set with HepG2 cells [7] (setting [12]), 6.6 ± 1.12 µM; in the data set with HepG2 cells [7] (setting [13]) it was 5.67 ± 1.02 µM. Moreover, in data set [2], the “LEC (lowest effect concentration), larval growth assay” value is at most 10 µM. Also, the half-maximal effective concentration (EC50) in the data set with HepG2 cells [3] is 31.4 ± 10.1 µM. Besides, the Parkin recruitment entry in [5] is recorded as “Inactive”. Further, the “p53 (HCT-116) EC50” value in data set [6] was “Inactive”.
Consider `NNc1nc(-c2ccccc2)cs1` [2-Hydrazino-4-phenylthiazole], for which the concentration for a half-maximal effect (EC50) is 6.92 ± 1.73 µM in data set [1] (Homo sapiens, HepG2, read-out: ARE (HepG2) EC50) and 34.5 ± 28.8 µM in the data set on HepG2 cells [3]. In addition, the “I-ADP, % of control (O2 consumption rate)” value in data set [8] (100 µM, glutamate/malate driven state 3 respiration, isolated rat liver mitochondria) is 94 (50.2) % of control. In addition, the “I-sub, % of control (O2 consumption rate)” value in data set [8] (100 µM, glutamate/malate driven state 4 respiration, isolated rat liver mitochondria) is 119 (16.0) % of control. The “II-ADP, % of control (O2 consumption rate)” value in [8] (100 µM, succinate-driven state 3 respiration, isolated rat liver mitochondria) is 88 (59.2) % of control. Besides, in [8] (100 µM, succinate-driven state 4 respiration, isolated rat liver mitochondria), the “II-sub, % of control (O2 consumption rate)” value is on record as 99 (21.4) % of control. Further, in data set [8] (mitochondrial respiration in isolated rat liver mitochondria, Clark type oxygen electrode, over tested concentrations), the “Potential Mechanism” value is on record as “Inactive”. In the data set on rat primary hepatocytes, the “Rat hepatocytes (efficacy) (MMP)” value is −57.1±16.9%. Moreover, the half-maximal inhibitory concentration (IC50) in the data set on rat primary hepatocytes (setting [11]) is 54.7 ± 21.1 µM; with rat primary hepatocytes (read-out: MMP assays IC50 (µM) Rat Hepatocytes), 21.5 ± 17.6 µM; in the data set with HepG2 cells [10] (read-out: MMP assays IC50 (µM) qHTS-HepG2), 2.32 ± 0.79 µM; in the data set on hNSC, 14.2 ± 2.56 µM; with HepG2 cells [7] (setting [12]), 48.2 ± 17.5 µM; in the data set with HepG2 cells [7] (setting [13]) it was 37.1 ± 6.33 µM. For the same compound, in the data set on HepG2 cells [7] (HepG2, read-out: MMP assays IC50 (µM) HepG2), the 50% inhibitory concentration (IC50) was 10 µM. Further, the “MMP assays efficacy (%) Rat Hepatocytes” value in the data set with rat primary hepatocytes (rat hepatocytes, mean ± SD of three experiments) is listed as -81±30%. Further, the “LEC (lowest effect concentration), larval growth assay” value in data set [2] was at most 10 µM. Also, the minimal effective concentration in data set [2] (Caenorhabditis elegans, read-out: LEC EXT: lowest effect concentration for extinction, a measure of nematode size) was 10 µM; in data set [9], 25 µM. In addition, the “MMP assays efficacy (%) qHTS-HepG2” value with HepG2 cells [10] is listed as -118±14%. The “ATP (HepG2, glucose) IC50” value with HepG2 cells [4] (5 mM glucose) is “Inactive”. Moreover, the “ATP (HepG2, galactose) IC50” value in the data set with HepG2 cells [4] (10 mM galactose) was “Inactive”. In data set [5], the Parkin recruitment entry was “Inactive”. Also, the Emax in the data set with HepG2 cells [7] (HepG2, read-out: MMP assays efficacy (%) HepG2) came out at 103%.

Source of the values: publication PMC6112376, “Comprehensive Analyses and Prioritization of Tox21 10K Chemicals Affecting Mitochondrial Function by in-Depth Mechanistic Studies” (Environmental Health Perspectives, 2018).
